Data on 1 substance can be found in patent US20230015532A1, “PHARMACEUTICAL COMPOSITION, FOR PREVENTING OR TREATING FIBROSIS, COMPRISING PHEOPHORBIDE COMPOUND AS ACTIVE INGREDIENT” (PAEAN BIOTECHNOLOGY INC., priority 2019, published 2023).

Data set [1] relates to phosphorylated Smad3 and phosphorylated ERK in CCD8-Lu cells. The data set can be described thus: Western blotting of phosphorylated proteins of TGF-β signaling (Experimental Example 5). The class given is cell-based, human. The following applies: 5 μM, 6 hours after 5 ng/ml TGF-β. The protocol: A cell-based assay experiment was performed using Western blotting assay to determine the effect of pheophorbide a on phosphorylation in the TGF-β signaling pathway. CCD8-Lu cells, which are human lung-derived fibroblasts, were cultured in the DMEM medium containing 10% FBS. About 2×10^5 cells were then inoculated into a 6 well plate, cultured for 24 hours, and subjected to the deficient condition in the DMEM medium from which FBS was removed for about 24 hours. 24 hours later, following the treatment with TGF-β at a concentration of 5 ng/ml, fibrosis of cells was induced for 6 hours. Then, the cells were treated with pheophorbide a obtained in Preparation Example 2 or the therapeutic agent for pulmonary fibrosis and further cultured for 18 hours. Then, the negative control group was treated with nothing, the positive control group was treated with TGF-β alone at a concentration of 5 ng/ml, and the experimental groups were treated with TGF-β at a concentration of 5 ng/ml and 6 hours later, with pheophorbide a at a concentration of 5 μM and nintedanib at a concentration of 1 μM, respectively. […] The separated supernatant was obtained and transferred to a new microtube and then the protein was quantified using a bicinchoninic acid assay (BCA assay) protein quantitative kit. […]

Data set [2] deals with CCD8-Lu cells and LL-29 cells. In words: Cytotoxicity of pheophorbide a (WST-1 cell survival). The class given is cell-based, human. The following applies: 72 hours, CCD8-Lu and LL-29. Here is the method:
In order to confirm the cytotoxicity of pheophorbide a obtained in Preparation Example 2, CCD8-Lu cells and LL-29 cells which are human lung-derived fibroblasts, were used. CCD8-Lu cells and LL-29 cells were inoculated into 96 well plates with […] cells/well and stabilized while culturing for 24 hours in a wet CO2 incubator at 37° C. The cultured cells were treated with different concentrations of pheophorbide a obtained in Preparation Example 2 and, 72 hours later, treated with the WST-1 reagent. After 1 hour, the survival rate of the cells was measured using a microplate reader (EZ Read 400, biochrom, UK) to determine the absorbance at 450 nm, and the toxicity was evaluated.
The cell survival rate as a result of the experiment is shown in FIG. 3 by expressing the percentage of the absorbance of the sample-treated group relative to the control group.
Background: Tetrazolium assays rely on reduction of a dye to a coloured formazan, in cell work by metabolically active cells.

As for pheophorbide a, the “expression of phosphorylated Smad3 and phosphorylated ERK induced by TGF-β” value in data set [1] is recorded as “remarkably inhibited”. Further, the cytotoxicity result in data set [2] (concentration of 5 μM) was “about 25%”; in data set [2] (concentration of 10 μM), “about 75%”; in data set [2] (up to a concentration of 2.5 μM), “little cytotoxicity”.
